Measurements as given in US9538754B2, “Combinations of pyrimethanil and monoterpenes” (Janssen Pharmaceutica NV, priority 2010, dated 2017).

Legend:
Assay in all cases: Poison Plate Assay
Format in all cases: cell-based
[1] = system: Chaetomium globosum CEB1218.2; settings: CEB1218.2, 336 h, pyrimethanil (I) with thymol (II-a), ppm total active ingredient, Glucose Agar, 27° C., growth evaluated after two weeks, read-out: MIC-values (minimum inhibitory concentration) in ppm
Protocol: (§1) • Name of component (I): pyrimethanil • Name of component (II): thymol (II-a) • β-thujaplicin (II-b) • Test models: Fungi: to each well of a 24-well microliter plate, 1000 μl of Glucose Agar (GA: 10 g glucose, 1.5 g K2HPO4, 2 g KH2PO4, 1 g (NH4)2SO4, 0.5 g MgSO4 and 12.5 g agar in 1 liter deionised water) containing the appropriate combination of the test compounds in one of the concentrations of a dose series is added. The nutrient medium is inoculated with the test fungi by adding a sporeimycelium suspension (10 μl) or a small piece of agar from the margin of an actively growing colony and incubated under dark at 27° C. with 70% relative humidity. […] In addition to this dose series, pyrimethanil single was also tested at 9.50-7.13-5.34-4.01-3.01-2.25-1.69-1.27-0.95-0.71-0.53-0.40 ppm in order to define a lower limit to its activity.
(§2) A. G. Nass (1957) “Some aspects of the notions additivity, synergism and antagonism in the simultaneous activity of two antibacterial agents in vitro” Arch. intern. Pharmaco-dynamie 109: 211-228; Steinberg, D. C. (2000) “Measuring synergy” cosmetics & Toiletries 115(11): 59-62; and Lada, A., A. N. Petrocci, H. A. Green, and J. J. Merianos (1977) “Antimicrobial composition” U.S. Pat. No. 4,061,750, 3 pp.):
(§3) [formula] wherein: • QA is the concentration of compound A in ppm, acting alone, which produced an end point (e.g. MIC), • Qa is the concentration of compound A in ppm, in the mixture, which produced an end point (e.g. MIC), • QB is the concentration of compound B in ppm, acting alone, which produced an end point (e.g. MIC), • Qb is the concentration of compound B in ppm, in the mixture, which produced an end point (e.g. MIC). When the Synergy Index is greater than 1.0, antagonism is indicated. When the SI is equal to 1.0, additivity is indicated.

[2] = system: Ulocladium atrum IMI 214669a; settings: Alternaria atra, IMI214669A, 336 h, pyrimethanil (I) with β-thujaplicin (II-b), ppm total active ingredient, Glucose Agar, 27° C., growth evaluated after two weeks, read-out: MIC-values (minimum inhibitory concentration) in ppm
Protocol: as §1, §2, §3

[3] = system: Stachybotrys atra CBS328.37; settings: CBS328, 336 h, pyrimethanil (I) with thymol (II-a), ppm total active ingredient, Glucose Agar, 27° C., growth evaluated after two weeks, read-out: MIC-values (minimum inhibitory concentration) in ppm
Protocol: as §1, §2, §3

In the case of `Cc1cc(C)nc(Nc2ccccc2)n1` [component (I), 4,6-dimethyl-N-phenyl-2-pyrimidinamine], the MIC [1] is reported as 400 mg/L, the MIC [2] is reported as 23 mg/L and the MIC [3] is reported as 127 mg/L.
